PubChem BioAssay AID328 (DTP/NCI, 2004)
“And” between values parts separate entries of the source, which are not always exact repeats. Identical values can stand only once. Inconclusive results and toxic doses are left out.

System: BDF1 mice, P388 leukemia ip, median survival T/C
Experiment: NCI In Vivo Anticancer Drug Screen. Data for tumor model P388 Leukemia (intraperitoneal) in B6D2F1 (BDF1) mice
Details: endpoint: median survival time, higher = longer survival
Method in brief: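 Compound-treated tumour-bearing mice were compared with vehicle-treated controls. Survival was recorded, and the value is the treated-group measurement divided by the control-group measurement (T/C).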

[1] = dose: 50.0 mg/kg/injection, schedule: Q04DX003 (ip), vehicle: saline
[2] = dose: 100.0 mg/kg/injection, schedule: Q04DX003 (ip), vehicle: saline
[3] = dose: 200.0 mg/kg/injection, schedule: Q04DX003 (ip), vehicle: saline
[4] = dose: 100.0 mg/kg/injection, schedule: Q01DX001 (ip), vehicle: Klucel (hydroxypropylcellulose) (HPC)
[5] = dose: 200.0 mg/kg/injection, schedule: Q01DX001 (ip), vehicle: Klucel (hydroxypropylcellulose) (HPC)
[6] = dose: 100.0 mg/kg/injection, schedule: Q01DX009 (ip), vehicle: Klucel (hydroxypropylcellulose) (HPC)
[7] = dose: 200.0 mg/kg/injection, schedule: Q01DX009 (ip), vehicle: Klucel (hydroxypropylcellulose) (HPC)
[8] = dose: 400.0 mg/kg/injection, schedule: Q01DX009 (ip), vehicle: Klucel (hydroxypropylcellulose) (HPC)
[9] = dose: 50.0 mg/kg/injection, schedule: Q01DX005 (ip), vehicle: saline with Tween-80
[10] = dose: 100.0 mg/kg/injection, schedule: Q01DX005 (ip), vehicle: saline with Tween-80
[11] = dose: 200.0 mg/kg/injection, schedule: Q01DX005 (ip), vehicle: saline with Tween-80
[12] = dose: 400.0 mg/kg/injection, schedule: Q04DX003 (ip), vehicle: saline with Tween-80

Question: How did the T/C (dose: 50.0 mg/kg/injection, schedule: Q01DX001 (ip), vehicle: saline sonified) turn out when `CCCCCC1(O)C2CCCC1CCC2` (stereo not given) was run?
Answer: 105 % of control

Question: What about the T/C (dose: 50.0 mg/kg/injection, schedule: Q01DX001 (ip), vehicle: suspension in saline) of the same compound?
Answer: 98 % of control

Question: What about the T/C (dose: 100.0 mg/kg/injection, schedule: Q01DX001 (ip), vehicle: saline sonified) of the same compound?
Answer: 105 % of control

Question: What about the T/C (dose: 100.0 mg/kg/injection, schedule: Q01DX001 (ip), vehicle: suspension in saline) of the same compound?
Answer: 104 % of control

Question: And the T/C (dose: 200.0 mg/kg/injection, schedule: Q01DX001 (ip), vehicle: suspension in saline)?
Answer: 107 % of control

Question: How did the T/C (dose: 6.25 mg/kg/injection, schedule: Q01DX009 (ip), vehicle: saline with Tween-80) turn out when `C[N-]c1nnnn1C.[Au+].c1ccc([PH+](c2ccccc2)c2ccccc2)cc1` was run?
Answer: 108 % of control

Question: What about the T/C (dose: 12.5 mg/kg/injection, schedule: Q01DX009 (ip), vehicle: saline with Tween-80) of the same compound?
Answer: 108 % of control

Question: And the T/C (dose: 25.0 mg/kg/injection, schedule: Q01DX009 (ip), vehicle: saline with Tween-80)?
Answer: 108 % of control

Question: With `O=C(O)c1nc2nc(Cl)c(Cl)nc2[nH]1` as the compound, how does the T/C [1] read?
Answer: 111 % of control

Question: What about the T/C [2] of the same compound?
Answer: 97 % of control

Question: What about the T/C [3] of the same compound?
Answer: 116 % of control

Question: How did the T/C [4] turn out when `Cc1ccc(C)c(Nc2cc(=O)[nH]c(=O)[nH]2)c1` was run?
Answer: 98 % of control

Question: And the T/C [5]?
Answer: 103 % of control

Question: `Cc1nn(C)c2ccc([N+](=O)[O-])cc12` was tested. Which T/C [6] did it give?
Answer: 118 % of control

Question: What about the T/C [7] of the same compound?
Answer: 104 % of control

Question: What about the T/C [8] of the same compound?
Answer: 122 % of control

Question: Which results are given for `COc1ccc2c(c1OC)C(=O)OC2(O)C1=NCCc2cc3c(cc21)OCO3` (stereo not given)?
Answer: T/C [9]: 111 % of control; T/C [10]: 98 % of control; T/C [11]: 109 % of control

Question: What does the source list for `O=C1COc2ccccc2N1`?
Answer: T/C [4]: 113 % of control; T/C [5]: 100 % of control

Question: What does the source list for `CCc1n[nH]c(=O)c2c3ccccc3nn12`?
Answer: T/C (dose: 100.0 mg/kg/injection, schedule: Q01DX001 (ip), vehicle: saline with Tween-80): 96 % of control; T/C (dose: 200.0 mg/kg/injection, schedule: Q01DX001 (ip), vehicle: saline with Tween-80): 105 % of control; T/C (dose: 400.0 mg/kg/injection, schedule: Q01DX001 (ip), vehicle: saline with Tween-80): 100 % of control

Question: Which T/C (dose: 100.0 mg/kg/injection, schedule: Q04DX003 (ip), vehicle: saline with Tween-80) does the source give for `Cc1ccc(S(=O)(=O)Nc2ccccc2SSc2ccccc2NS(=O)(=O)c2ccc(C)cc2)cc1` here?
Answer: 100 % of control

Question: And the T/C (dose: 200.0 mg/kg/injection, schedule: Q04DX003 (ip), vehicle: saline with Tween-80)?
Answer: 110 % of control

Question: And the T/C [12]?
Answer: 110 % of control

Question: For `Clc1nn2nnnc2c2ccccc12`, which T/C (dose: 10.0 mg/kg/injection, schedule: Q01DX009 (ip), vehicle: saline with Tween-80) is on record?
Answer: 102 % of control

Question: And the T/C (dose: 20.0 mg/kg/injection, schedule: Q01DX009 (ip), vehicle: saline with Tween-80)?
Answer: 122 % of control

Question: And the T/C (dose: 37.5 mg/kg/injection, schedule: Q01DX009 (ip), vehicle: saline with Tween-80)?
Answer: 91 % of control

Question: What does the source list for `Cn1cnc([N+](=O)[O-])c1[Se]c1ncnc2c1ncn2C1OC(CO)C(O)C1O` (stereo not given)?
Answer: T/C (dose: 6.25 mg/kg/injection, schedule: Q01DX009 (ip), vehicle: saline): 105 % of control; T/C (dose: 12.5 mg/kg/injection, schedule: Q01DX009 (ip), vehicle: saline): 113 % of control; T/C (dose: 12.5 mg/kg/injection, schedule: Q04DX003 (ip), vehicle: saline): 113 % of control; T/C (dose: 25.0 mg/kg/injection, schedule: Q01DX009 (ip), vehicle: saline): 102 % of control; T/C (dose: 25.0 mg/kg/injection, schedule: Q04DX003 (ip), vehicle: saline): 100 % of control and 104 % of control; T/C [1]: 100 % of control and 113 % of control; T/C [2]: 100 % of control; T/C [3]: 100 % of control

Question: With `O=Cc1ccc(C(Cl)(Cl)Cl)cc1` as the compound, how does the T/C (dose: 50.0 mg/kg/injection, schedule: Q01DX009 (ip), vehicle: saline with Tween-80) read?
Answer: 92 % of control

Question: And the T/C (dose: 200.0 mg/kg/injection, schedule: Q01DX009 (ip), vehicle: saline with Tween-80)?
Answer: 122 % of control

Question: What about the T/C [12] of the same compound?
Answer: 163 % of control

Question: How did the T/C (dose: 12.5 mg/kg/injection, schedule: Q01DX009 (ip), vehicle: Klucel (hydroxypropylcellulose) (HPC)) turn out when `C=C1C(=O)OC(/C=C(\C)CO)C1C(C/C(C)=C/CO)OC(=O)/C(C)=C\C` (stereo not given) was run?
Answer: 111 % of control

Question: What about the T/C (dose: 25.0 mg/kg/injection, schedule: Q01DX009 (ip), vehicle: Klucel (hydroxypropylcellulose) (HPC)) of the same compound?
Answer: 111 % of control

Question: And the T/C (dose: 50.0 mg/kg/injection, schedule: Q01DX009 (ip), vehicle: Klucel (hydroxypropylcellulose) (HPC))?
Answer: 109 % of control

Question: And the T/C [6]?
Answer: 94 % of control

Question: And the T/C [7]?
Answer: 94 % of control

Question: Which results are given for `O=C(O)CCC(=O)O`?
Answer: T/C (dose: 10.0 mg/kg/injection, schedule: Q01DX009 (ip), vehicle: saline): 101 % of control and 122 % of control and 100 % of control; T/C (dose: 10.0 mg/kg/injection, schedule: Q01DX009 (ip), vehicle: water): 111 % of control and 98 % of control; T/C (dose: 20.0 mg/kg/injection, schedule: Q01DX009 (ip), vehicle: saline): 105 % of control and 115 % of control and 106 % of control; T/C (dose: 20.0 mg/kg/injection, schedule: Q01DX009 (ip), vehicle: water): 117 % of control and 120 % of control; T/C (dose: 25.0 mg/kg/injection, schedule: Q01DX009 (ip), vehicle: other): 105 % of control and 120 % of control; T/C (dose: 40.0 mg/kg/injection, schedule: Q01DX009 (ip), vehicle: saline): 109 % of control and 108 % of control; T/C (dose: 40.0 mg/kg/injection, schedule: Q01DX009 (ip), vehicle: water): 124 % of control and 100 % of control; T/C (dose: 50.0 mg/kg/injection, schedule: Q01DX009 (ip), vehicle: other): 103 % of control and 102 % of control; T/C (dose: 80.0 mg/kg/injection, schedule: Q01DX009 (ip), vehicle: saline): 108 % of control and 117 % of control; T/C (dose: 80.0 mg/kg/injection, schedule: Q01DX009 (ip), vehicle: water): 115 % of control and 117 % of control; T/C (dose: 100.0 mg/kg/injection, schedule: Q01DX009 (ip), vehicle: other): 102 % of control and 119 % of control; T/C (dose: 160.0 mg/kg/injection, schedule: Q01DX009 (ip), vehicle: saline): 114 % of control and 110 % of control; T/C (dose: 160.0 mg/kg/injection, schedule: Q01DX009 (ip), vehicle: water): 98 % of control and 124 % of control; T/C (dose: 200.0 mg/kg/injection, schedule: Q01DX009 (ip), vehicle: other): 110 % of control; T/C (dose: 200.0 mg/kg/injection, schedule: Q01DX009 (ip), vehicle: saline): 99 % of control and 115 % of control

Question: Which results are given for `CCC(/C=C\C(C)C1CCC2C3CC=C4CC(O)CCC4(C)C3CCC12C)C(C)C` (stereo not given)?
Answer: T/C (dose: 50.0 mg/kg/injection, schedule: Q01DX010 (ip), vehicle: saline): 104 % of control; T/C (dose: 100.0 mg/kg/injection, schedule: Q01DX010 (ip), vehicle: saline): 108 % of control; T/C (dose: 200.0 mg/kg/injection, schedule: Q01DX010 (ip), vehicle: saline): 100 % of control; T/C (dose: 400.0 mg/kg/injection, schedule: Q01DX010 (ip), vehicle: saline): 91 % of control

Question: What does the source list for `O=C1C(Cl)=C(Cl)C(=O)C2=C1C1c3ccccc3C2c2ccccc21`?
Answer: T/C [6]: 115 % of control; T/C [7]: 120 % of control; T/C (dose: 200.0 mg/kg/injection, schedule: Q04DX003 (ip), vehicle: saline sonified): 109 % of control; T/C [8]: 105 % of control; T/C (dose: 400.0 mg/kg/injection, schedule: Q04DX003 (ip), vehicle: saline sonified): 104 % of control

Question: For `Cc1nc2ccccc2c(=O)n1-c1nccs1`, which T/C [9] is on record?
Answer: 102 % of control

Question: And the T/C [10]?
Answer: 107 % of control

Question: What about the T/C [11] of the same compound?
Answer: 102 % of control

Question: How did the T/C (dose: 3.12 mg/kg/injection, schedule: Q01DX009 (ip), vehicle: water) turn out when `CS(=O)(=O)OCc1c(O)c2c(c(O)c1COS(C)(=O)=O)C(=O)C=CC2=O` was run?
Answer: 103 % of control

Question: And the T/C (dose: 3.12 mg/kg/injection, schedule: Q04DX003 (ip), vehicle: water)?
Answer: 102 % of control

Question: And the T/C (dose: 6.25 mg/kg/injection, schedule: Q01DX009 (ip), vehicle: water)?
Answer: 114 % of control

Question: What about the T/C (dose: 6.25 mg/kg/injection, schedule: Q04DX003 (ip), vehicle: water) of the same compound?
Answer: 102 % of control

Question: And the T/C (dose: 12.5 mg/kg/injection, schedule: Q01DX009 (ip), vehicle: water)?
Answer: 106 % of control

Question: And the T/C (dose: 12.5 mg/kg/injection, schedule: Q04DX003 (ip), vehicle: water)?
Answer: 93 % of control

Question: And the T/C (dose: 25.0 mg/kg/injection, schedule: Q01DX009 (ip), vehicle: water)?
Answer: 107 % of control

Question: What about the T/C (dose: 25.0 mg/kg/injection, schedule: Q04DX003 (ip), vehicle: water) of the same compound?
Answer: 101 % of control

Question: And the T/C (dose: 50.0 mg/kg/injection, schedule: Q01DX009 (ip), vehicle: water)?
Answer: 116 % of control

Question: What about the T/C (dose: 50.0 mg/kg/injection, schedule: Q04DX003 (ip), vehicle: water) of the same compound?
Answer: 102 % of control

Question: And the T/C (dose: 100.0 mg/kg/injection, schedule: Q01DX009 (ip), vehicle: water)?
Answer: 94 % of control

Question: And the T/C (dose: 100.0 mg/kg/injection, schedule: Q04DX003 (ip), vehicle: water)?
Answer: 108 % of control and 109 % of control
